{
  "source": "patent US20250000843A1",
  "about": "“LIGNAN-INSPIRED COMPOUNDS, METHODS OF MAKING, AND USING THEREOF” (IOWAIBO, INC., priority 2023, published 2025)",
  "type_in_all_cases": "cell-based",
  "key": {"[1]": {"system": "PC3, a human prostate cancer cell line", "assay": "MTT toxicity assay in PC3 prostate cancer cells", "details": "for Cell death #3 (%) / Cell death (%) MEAN / Cell death #1 (%) / Cell death #2 (%): PC3, 72 hours", "method": "Toxicity of the dibenzyl butyl lactone derivative (3-[(3,4-dimethoxyphenyl)cyclopentyl], 4-[(3-hydroxyphenol)methyl]oxolan-2-one) in breast cancer cells was evaluated using MTT assay. The MTT toxicity test is a colorimetric assay to measure cells' metabolic activity by serving as a substrate of cellular enzymes that reduce the tetrazolium orange dye, MTT (3-(4,5-Dimethylthiazol-2-yl)-2,5-diphenyltetrazolium bromide) to its insoluble, formazan, giving a purple color. The rate of conversion is directly proportional to cells' mitochondrial metabolic activity via NAD (P) H-dependent cellular oxidoreductase enzymes and serves as a surrogate marker of cell viability.\nCells previously expanded were seeded in 96 well plates at 1.9×10^5 and 9.6×10^4 cells/plate for 24- and 72-hours treatment respectively. This concentration is known to show the best window for the MTT assay, with better sensitivity and low variability.\n5 mg of powdered enterolactone, dibenzyl butyl lactone derivative enantiomer A, and dibenzyl butyl lactone derivative enantiomer B were dissolved in 500 μl of DMSO at room temperature. Eight-point curves, ⅓ dilutions (highest concentration 125 μM), were prepared.\nTwenty-four hours following the seeding process, the cells were washed once with phosphate buffered saline (PBS) and treated with the respective compounds in cell culture media. Each condition was tested in triplicates. For positive and negative controls, 8 mM methyl methane sulfonate (MMS) and DMSO 100% were used respectively.\nFollowing compound addition, the plates were incubated for 24 and 72 hours. After the treatment period, cells were washed twice with PBS and media was replaced with MTT reagent at 0.5 mg/ml in Dulbecco's modified Eagle medium (DMEM) without phenol red. The plates were gently shaken and incubated for 4 hours. After the incubation the medium was removed and replaced by DMSO. The plates were gently shaken to solubilize the formazan crystals. Absorbance was measured using an Envision multiplate reader at a wavelength of 570 nm.\nToxicity of the dibenzyl butyl lactone derivative (3-[(3,4-dimethoxyphenyl)cyclopentyl], 4-[(3-hydroxyphenol)methyl]oxolan-2-one) in prostate cancer cells was evaluated using MTT assay. The same methods as those used in Example 2 were employed, except the cell line used was PC3, a human prostate cancer cell line, and cell cultures were established in Kaighn's modification of Ham's […] medium.\nMTT assay results are shown in Tables 16-21 and expressed as the percentage of cell death after treatment."}, "[2]": {"biological_target": "telomerase (Homo sapiens, UniProt O14746)", "sequence (O14746 whole entry)": "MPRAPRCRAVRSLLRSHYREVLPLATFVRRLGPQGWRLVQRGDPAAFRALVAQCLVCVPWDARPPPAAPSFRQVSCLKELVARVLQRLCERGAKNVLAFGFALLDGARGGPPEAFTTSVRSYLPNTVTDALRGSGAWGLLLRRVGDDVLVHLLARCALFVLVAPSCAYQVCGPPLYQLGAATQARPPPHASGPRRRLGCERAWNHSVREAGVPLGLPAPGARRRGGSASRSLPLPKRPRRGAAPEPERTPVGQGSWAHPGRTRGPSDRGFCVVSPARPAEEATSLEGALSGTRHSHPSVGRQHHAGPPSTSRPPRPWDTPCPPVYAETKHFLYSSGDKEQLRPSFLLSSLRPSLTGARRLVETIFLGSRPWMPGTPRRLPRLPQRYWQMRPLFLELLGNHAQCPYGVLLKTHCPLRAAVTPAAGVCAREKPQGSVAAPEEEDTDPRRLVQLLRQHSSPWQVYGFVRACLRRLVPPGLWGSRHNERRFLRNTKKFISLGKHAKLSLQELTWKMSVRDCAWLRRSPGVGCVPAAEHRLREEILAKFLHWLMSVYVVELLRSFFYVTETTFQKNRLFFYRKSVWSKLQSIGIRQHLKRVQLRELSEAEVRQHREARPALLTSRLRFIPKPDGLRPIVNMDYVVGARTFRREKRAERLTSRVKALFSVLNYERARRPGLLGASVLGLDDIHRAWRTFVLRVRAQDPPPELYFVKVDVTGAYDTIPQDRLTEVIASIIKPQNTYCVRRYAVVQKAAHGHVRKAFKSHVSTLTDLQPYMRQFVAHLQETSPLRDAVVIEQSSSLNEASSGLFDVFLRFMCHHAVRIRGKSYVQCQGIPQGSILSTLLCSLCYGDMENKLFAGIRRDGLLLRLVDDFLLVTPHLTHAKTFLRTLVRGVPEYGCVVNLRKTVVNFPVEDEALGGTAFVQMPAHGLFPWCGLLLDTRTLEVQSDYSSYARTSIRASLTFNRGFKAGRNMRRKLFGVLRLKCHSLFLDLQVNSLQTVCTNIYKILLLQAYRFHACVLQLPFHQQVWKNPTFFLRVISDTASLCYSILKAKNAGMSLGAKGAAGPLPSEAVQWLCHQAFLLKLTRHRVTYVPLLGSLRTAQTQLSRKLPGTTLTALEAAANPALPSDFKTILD", "sequence (O60832 whole entry partner)": "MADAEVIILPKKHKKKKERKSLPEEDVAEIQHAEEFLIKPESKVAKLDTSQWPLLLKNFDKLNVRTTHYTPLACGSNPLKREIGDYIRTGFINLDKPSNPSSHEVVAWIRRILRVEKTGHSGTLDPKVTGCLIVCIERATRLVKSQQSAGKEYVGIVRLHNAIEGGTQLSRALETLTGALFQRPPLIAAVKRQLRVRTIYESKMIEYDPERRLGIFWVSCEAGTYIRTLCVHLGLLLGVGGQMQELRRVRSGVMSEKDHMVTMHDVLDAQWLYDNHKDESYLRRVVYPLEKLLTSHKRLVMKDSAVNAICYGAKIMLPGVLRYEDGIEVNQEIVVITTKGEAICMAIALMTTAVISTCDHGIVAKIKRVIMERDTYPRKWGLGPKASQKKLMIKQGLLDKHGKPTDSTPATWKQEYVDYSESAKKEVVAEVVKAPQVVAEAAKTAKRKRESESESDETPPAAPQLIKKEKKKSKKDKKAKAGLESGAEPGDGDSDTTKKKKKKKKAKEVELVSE", "sequence (Q9NPE3 whole entry partner)": "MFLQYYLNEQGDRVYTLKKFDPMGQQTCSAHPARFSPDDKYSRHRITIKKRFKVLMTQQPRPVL", "sequence (Q9NX24 whole entry partner)": "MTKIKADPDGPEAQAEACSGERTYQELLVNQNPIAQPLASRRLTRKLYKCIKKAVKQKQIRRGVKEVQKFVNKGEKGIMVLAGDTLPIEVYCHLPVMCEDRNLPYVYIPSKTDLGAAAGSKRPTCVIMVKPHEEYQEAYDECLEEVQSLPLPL", "sequence (Q9NY12 whole entry partner)": "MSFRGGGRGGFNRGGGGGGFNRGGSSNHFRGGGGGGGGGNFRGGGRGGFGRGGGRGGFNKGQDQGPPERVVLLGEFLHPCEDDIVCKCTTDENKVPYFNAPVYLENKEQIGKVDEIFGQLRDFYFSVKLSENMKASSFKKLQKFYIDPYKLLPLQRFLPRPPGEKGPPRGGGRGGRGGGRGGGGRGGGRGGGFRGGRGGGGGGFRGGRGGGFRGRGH", "sequence (Q9BUR4 whole entry partner)": "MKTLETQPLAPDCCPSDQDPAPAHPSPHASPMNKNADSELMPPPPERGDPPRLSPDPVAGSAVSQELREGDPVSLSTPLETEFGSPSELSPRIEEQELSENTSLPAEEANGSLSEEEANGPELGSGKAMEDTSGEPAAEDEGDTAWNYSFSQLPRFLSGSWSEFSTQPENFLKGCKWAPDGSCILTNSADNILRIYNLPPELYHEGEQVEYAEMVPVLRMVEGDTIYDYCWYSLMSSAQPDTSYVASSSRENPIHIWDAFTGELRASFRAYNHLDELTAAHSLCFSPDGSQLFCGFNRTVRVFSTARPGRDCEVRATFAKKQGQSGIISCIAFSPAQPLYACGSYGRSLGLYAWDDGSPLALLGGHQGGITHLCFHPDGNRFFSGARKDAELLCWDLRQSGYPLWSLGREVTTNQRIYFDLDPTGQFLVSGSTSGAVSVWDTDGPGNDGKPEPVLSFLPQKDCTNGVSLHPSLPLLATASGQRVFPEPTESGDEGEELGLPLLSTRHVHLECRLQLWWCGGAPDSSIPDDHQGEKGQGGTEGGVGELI", "assay": "Q-TRAP telomerase activity in MCF7 breast cancer cells", "parameters": "allow the enzymatic addition of telomeric DNA repeats by endogenous telomerase; endogenous in cells"}, "[3]": {"system": "human induced pluripotent stem (iPS) cells", "details": "human", "method": "The dibenzyl butyl lactone derivative enantiomer A and B were compared to enterolactone and tested to determine toxicity using a human pluripotent stem (hPS) cell-based assay that predicts the developmental toxicity potential. […] The current study was conducted using human induced pluripotent stem (iPS) cells.\nThe impact of test article exposure on ornithine and cystine metabolism in human induced pluripotent stem (iPS) cells was measured for three test articles (dibenzyl butyl lactone derivative enantiomer A, dibenzyl butyl lactone derivative enantiomer B, and enterolactone) and prediction of the potential for developmental toxicity was made through application of the hPS cell-based assay. Exposure spanned a range of eight treatment levels per test article ranging from 0.03-100 μM.\nThe observed decrease in the o/c ratio following exposure to each test article is indicative of the potential for developmental toxicity and/or embryo lethality in vivo at or above the dTP concentration. FIGS. 15A-C show the o/c ratio of dibenzyl butyl lactone derivative enantiomer A (FIG. 15A), dibenzyl butyl lactone derivative enantiomer B (FIG. 15B), and (+/−) enterolactone (FIG. 15C). The graphs in FIGS. 15A-C show the cell viability and o/c/ ratio over concentrations of 0.03-100 μM with the straight horizontal line illustrating the developmental toxicity threshold of 0.85."}},
  "data": [
    {"compound": "O=C1OCC(Cc2ccc3c(c2)OCO3)/C1=C\\c1cccc(O)c1", "note": "(single isomer, unassigned) [Enantiomer A, 3-[(3,4-dimethoxyphenyl)cyclopentyl], 4-[(3-hydroxyphenol)methyl]oxolan-2-one]", "values": [
      {"measurement": "Cell death #3 (%)", "setting": "[1]; 4.63 μM", "value": "−54.63", "unit": "%"},
      {"measurement": "Cell death (%) MEAN", "setting": "[1]; 4.63 μM", "value": "−65.85", "unit": "%"},
      {"measurement": "Cell death #1 (%)", "setting": "[1]; 13.89 μM", "value": "−45.54", "unit": "%"},
      {"measurement": "Cell death #2 (%)", "setting": "[1]; 13.89 μM", "value": "−47.91", "unit": "%"},
      {"measurement": "Cell death #3 (%)", "setting": "[1]; 13.89 μM", "value": "−30.21", "unit": "%"},
      {"measurement": "Cell death (%) MEAN", "setting": "[1]; 13.89 μM", "value": "−41.22", "unit": "%"},
      {"measurement": "Cell death #1 (%)", "setting": "[1]; 41.67 μM", "value": 9.78, "unit": "%"},
      {"measurement": "Cell death #2 (%)", "setting": "[1]; 41.67 μM", "value": 23.24, "unit": "%"},
      {"measurement": "Cell death #3 (%)", "setting": "[1]; 41.67 μM", "value": 14.02, "unit": "%"},
      {"measurement": "Cell death (%) MEAN", "setting": "[1]; 41.67 μM", "value": 15.68, "unit": "%"},
      {"measurement": "Cell death #1 (%)", "setting": "[1]; 125.00 μM", "value": 75.56, "unit": "%"},
      {"measurement": "Cell death #2 (%)", "setting": "[1]; 125.00 μM", "value": 74.94, "unit": "%"},
      {"measurement": "Cell death #3 (%)", "setting": "[1]; 125.00 μM", "value": 74.82, "unit": "%"},
      {"measurement": "Cell death (%) MEAN", "setting": "[1]; 125.00 μM", "value": 75.11, "unit": "%"},
      {"measurement": "prostate cancer cell death as compared to enterolactone", "setting": "[1]; PC3, at higher concentrations, 24 hours and 72 hours post-treatment", "value": "increased prostate cancer cell death as compared to enterolactone"},
      {"measurement": "Telomerase Activity RTA (%)", "setting": "[2]; MCF7, 2.5 μM, 24 Hours", "value": 115.47, "unit": "%"},
      {"measurement": "Telomerase Activity RTA (%)", "setting": "[2]; MCF7, 2.5 μM, 48 Hours", "value": 49.73, "unit": "%"},
      {"measurement": "Telomerase Activity RTA (%)", "setting": "[2]; MCF7, 2.5 μM, 72 Hours", "value": 15.70, "unit": "%"},
      {"measurement": "Telomerase Activity RTA (%)", "setting": "[2]; MCF7, 5 μM, 24 Hours", "value": 35.54, "unit": "%"},
      {"measurement": "Telomerase Activity RTA (%)", "setting": "[2]; MCF7, 5 μM, 48 Hours", "value": 29.14, "unit": "%"},
      {"measurement": "Telomerase Activity RTA (%)", "setting": "[2]; MCF7, 5 μM, 72 Hours", "value": 14.77, "unit": "%"},
      {"measurement": "Telomerase Activity RTA (%)", "setting": "[2]; MCF7, 10 μM, 24 Hours", "value": 40.24, "unit": "%"},
      {"measurement": "Telomerase Activity RTA (%)", "setting": "[2]; MCF7, 10 μM, 48 Hours", "value": 28.47, "unit": "%"},
      {"measurement": "Telomerase Activity RTA (%)", "setting": "[2]; MCF7, 10 μM, 72 Hours", "value": 15.87, "unit": "%"},
      {"measurement": "Telomerase Activity RTA (%)", "setting": "[2]; MCF7, 20 μM, 24 Hours", "value": 25.50, "unit": "%"},
      {"measurement": "Telomerase Activity RTA (%)", "setting": "[2]; MCF7, 20 μM, 48 Hours", "value": 41.20, "unit": "%"},
      {"measurement": "Telomerase Activity RTA (%)", "setting": "[2]; MCF7, 20 μM, 72 Hours", "value": 5.82, "unit": "%"},
      {"measurement": "Telomerase Activity RTA (%)", "setting": "[2]; MCF7, 40 μM, 24 Hours", "value": 62.53, "unit": "%"},
      {"measurement": "Telomerase Activity RTA (%)", "setting": "[2]; MCF7, 40 μM, 48 Hours", "value": 36.82, "unit": "%"},
      {"measurement": "Telomerase Activity RTA (%)", "setting": "[2]; MCF7, 40 μM, 72 Hours", "value": 0.86, "unit": "%"},
      {"measurement": "IC50", "setting": "[2]; MCF7, 24 h", "value": "~2490", "unit": "nM"},
      {"measurement": "telomerase activity levels of treated groups compared to control", "setting": "[2]; MCF7, 24 hours", "value": "lower telomerase activity levels compared to control"},
      {"measurement": "Significance of RTA difference vs. control", "setting": "[2]; MCF7, 24 hours, 5 μM", "value": "YES (*)"},
      {"measurement": "Significance of RTA difference vs. control", "setting": "[2]; MCF7, 24 hours, 10 μM", "value": "YES (*)"},
      {"measurement": "Significance of RTA difference vs. control", "setting": "[2]; MCF7, 24 hours, 20 μM", "value": "YES (*)"},
      {"measurement": "Significance of RTA difference vs. control", "setting": "[2]; MCF7, 24 hours, 40 μM", "value": "YES (*)"},
      {"measurement": "IC50", "setting": "[2]; MCF7, 48 h", "value": 2230, "unit": "nM"},
      {"measurement": "telomerase activity levels of treated groups compared to control", "setting": "[2]; MCF7, 48 hours", "value": "lower telomerase activity levels compared to control"},
      {"measurement": "Significance of RTA difference vs. control", "setting": "[2]; MCF7, 48 hours, 5 μM", "value": "YES (*)"},
      {"measurement": "Significance of RTA difference vs. control", "setting": "[2]; MCF7, 48 hours, 10 μM", "value": "YES (**)"},
      {"measurement": "Significance of RTA difference vs. control", "setting": "[2]; MCF7, 48 hours, 40 μM", "value": "YES (*)"},
      {"measurement": "IC50", "setting": "[2]; MCF7, 72 h", "value": 19800, "unit": "nM"},
      {"measurement": "telomerase activity levels of treated groups compared to control", "setting": "[2]; MCF7, 72 hours", "value": "groups treated with the two highest concentrations presented further lower RTA levels"},
      {"measurement": "Significance of RTA difference vs. control", "setting": "[2]; MCF7, 72 hours, 40 μM", "value": "YES (**)"},
      {"measurement": "telomerase inhibition effect", "setting": "[2]; MCF7 breast cancer cells", "value": "exhibit a telomerase inhibition effect"},
      {"measurement": "TP Concentration", "setting": "[3]", "value": 34.8, "unit": "µM"},
      {"measurement": "TP concentration, fold lower than (+/−) enterolactone TP", "setting": "[3]", "value": "4-6 fold"},
      {"measurement": "dTP Concentration", "setting": "[3]", "value": 21.4, "unit": "µM"},
      {"measurement": "dTP and TP concentrations compared with anti-cancer drugs tested in this assay", "setting": "[3]", "value": "higher than >90% of the anti-cancer drugs"},
      {"measurement": "fold difference between dTP and TP", "setting": "[3]", "value": "≤ 3", "unit": "fold"},
      {"measurement": "similarity of dTP concentrations between all three compounds", "setting": "[3]", "value": "≤ 2", "unit": "fold"}
    ]}
  ]
}
